From ChEMBL document CHEMBL3627663, “Synthesis and evaluation of 1-hydroxy/methoxy-4-methyl-2-phenyl-1H-imidazole-5-carboxylic acid derivatives as non-purine xanthine oxidase inhibitors” (Eur J Med Chem, 2015)

Columns and labels:
[1] = biological target: T1, Xanthine dehydrogenase/oxidase (Bos taurus, UniProt P80457); assay: Inhibition of bovine XO using xanthine as substrate after 120 mins by spectrophotometric analysis
[2] = biological target: T1, Xanthine dehydrogenase/oxidase; assay: Inhibition of bovine XO at 10 ug/ml using xanthine as substrate after 120 mins by spectrophotometric analysis; conditions: cattle, 2 h
[3] = biological target: T1, Xanthine dehydrogenase/oxidase; assay: Ratio of Febuxostat IC50 to compound IC50 for bovine XO; conditions: cattle
[4] = biological target: T1, Xanthine dehydrogenase/oxidase; assay: Mixed-type inhibition of bovine XO using xanthine as substrate by Lineweaver-Burk plot analysis; conditions: cattle

T1 sequence (P80457 whole entry): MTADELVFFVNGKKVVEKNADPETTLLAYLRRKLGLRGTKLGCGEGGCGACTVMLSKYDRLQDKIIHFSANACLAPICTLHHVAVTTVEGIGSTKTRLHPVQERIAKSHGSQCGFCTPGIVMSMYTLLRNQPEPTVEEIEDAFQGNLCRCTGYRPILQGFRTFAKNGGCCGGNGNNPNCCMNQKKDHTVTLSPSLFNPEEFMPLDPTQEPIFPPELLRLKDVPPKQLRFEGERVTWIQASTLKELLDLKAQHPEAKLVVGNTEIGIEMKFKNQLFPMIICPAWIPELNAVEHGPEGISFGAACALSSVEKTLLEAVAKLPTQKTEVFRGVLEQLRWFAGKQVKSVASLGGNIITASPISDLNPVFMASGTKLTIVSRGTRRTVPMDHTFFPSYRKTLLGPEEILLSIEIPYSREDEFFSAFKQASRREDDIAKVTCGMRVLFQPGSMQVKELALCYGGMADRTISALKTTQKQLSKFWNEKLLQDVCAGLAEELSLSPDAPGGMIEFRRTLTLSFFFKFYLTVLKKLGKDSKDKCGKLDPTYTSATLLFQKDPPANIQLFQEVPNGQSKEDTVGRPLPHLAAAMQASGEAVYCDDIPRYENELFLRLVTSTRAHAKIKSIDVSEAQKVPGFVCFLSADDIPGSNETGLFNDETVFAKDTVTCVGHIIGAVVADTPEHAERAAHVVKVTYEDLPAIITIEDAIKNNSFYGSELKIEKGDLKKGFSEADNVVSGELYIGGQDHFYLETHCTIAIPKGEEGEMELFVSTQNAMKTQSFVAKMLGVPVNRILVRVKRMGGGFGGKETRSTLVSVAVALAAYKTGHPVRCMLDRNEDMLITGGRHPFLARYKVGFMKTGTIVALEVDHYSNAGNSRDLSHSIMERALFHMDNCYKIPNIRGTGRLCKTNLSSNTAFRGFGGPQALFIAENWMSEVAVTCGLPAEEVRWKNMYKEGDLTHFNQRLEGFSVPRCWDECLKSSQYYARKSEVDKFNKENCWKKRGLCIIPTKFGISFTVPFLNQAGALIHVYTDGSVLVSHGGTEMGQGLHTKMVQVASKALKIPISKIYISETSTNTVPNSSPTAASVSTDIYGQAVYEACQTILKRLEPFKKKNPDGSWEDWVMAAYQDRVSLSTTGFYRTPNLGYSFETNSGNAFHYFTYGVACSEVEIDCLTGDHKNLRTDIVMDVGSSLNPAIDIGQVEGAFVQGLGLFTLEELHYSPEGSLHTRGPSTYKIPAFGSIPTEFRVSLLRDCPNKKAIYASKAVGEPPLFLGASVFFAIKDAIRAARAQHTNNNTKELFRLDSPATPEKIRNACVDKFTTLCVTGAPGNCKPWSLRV

Compound | IC50 [1] [nM] | inhibition (INH) [2] [%] | Ratio IC50 [3] | inhibition (INH) ([1]; cattle, 2 h) | inhibition (INH) [4]
Cc1nc(-c2ccc(OCCC(C)C)c(C#N)c2)n(O)c1C(=O)O | 30 | 91.25 |  |  | 
CCCOc1ccc(-c2nc(C)c(C(=O)O)n2OC)cc1C#N |  | 18.34 |  |  | 
CCCCOc1ccc(-c2nc(C)c(C(=O)O)n2O)cc1C#N | 3 | 89.57 | 3.3 |  | 
COc1ccc(-c2nc(C)c(C(=O)O)n2OC)cc1C#N |  | 10.68 |  |  | 
Cc1nc(-c2ccc(OC(C)C)c(C#N)c2)n(O)c1C(=O)O | 170 | 91.04 |  |  | 
COn1c(-c2ccc(OCCC(C)C)c(C#N)c2)nc(C)c1C(=O)O | 8000 | 59.55 |  |  | 
COc1ccc(-c2nc(C)c(C(=O)O)n2O)cc1C#N | 550 | 90.14 |  |  | 
CCCCOc1ccc(-c2nc(C)c(C(=O)O)n2OC)cc1C#N |  | 41.19 |  |  | 
CCCCCCOc1ccc(-c2nc(C)c(C(=O)O)n2OC)cc1C#N | 3900 | 80.34 |  |  | 
CCCCCCCCOc1ccc(-c2nc(C)c(C(=O)O)n2O)cc1C#N | 1200 | 88.17 |  |  | 
CCCOc1ccc(-c2nc(C)c(C(=O)O)n2O)cc1C#N | 130 | 89.77 |  |  | 
CCCCCCCCOc1ccc(-c2nc(C)c(C(=O)O)n2OC)cc1C#N |  | 19 |  |  | 
CCCCCCCOc1ccc(-c2nc(C)c(C(=O)O)n2O)cc1C#N | 110 | 89.93 |  |  | 
COn1c(-c2ccc(OCC(C)C)c(C#N)c2)nc(C)c1C(=O)O |  | 31.91 |  |  | 
Cc1ccc(COc2ccc(-c3nc(C)c(C(=O)O)n3O)cc2C#N)cc1 | 110 | 91.65 |  |  | 
COn1c(-c2ccc(OC(C)C)c(C#N)c2)nc(C)c1C(=O)O |  | 32.91 |  |  | 
CCCCCCCOc1ccc(-c2nc(C)c(C(=O)O)n2OC)cc1C#N |  | 26.8 |  |  | 
Cc1nc(-c2ccc(OCC(C)C)c(C#N)c2)n(O)c1C(=O)O | 6 | 94.08 | 1.7 | Dose-dependent effect | Active
CCC(C)Oc1ccc(-c2nc(C)c(C(=O)O)n2O)cc1C#N (stereo not drawn) | 3 | 88.33 | 3.3 |  | 
CCC(C)Oc1ccc(-c2nc(C)c(C(=O)O)n2OC)cc1C#N (stereo not drawn) | 1500 | 83.13 |  |  | 
COn1c(-c2ccc(OCc3ccc(C)cc3)c(C#N)c2)nc(C)c1C(=O)O | 1100 | 86.72 |  |  | 
CCCCCCOc1ccc(-c2nc(C)c(C(=O)O)n2O)cc1C#N | 30 | 92.51 |  |  | 
Cc1nc(-c2ccc(OCC(C)C)c(C#N)c2)sc1C(=O)O [FEBUXOSTAT] |  | 90.89 |  |  | 
